Assay results taken from patent US20030170326A1, “Bioavailability enchancing activity of Zingiber officinale Linn and its extracts/fractions thereof” (COUNCIL OF SCIENTIFIC AND INDUSTRIAL RESEARCH, priority 2001, published 2003).
Where two headings read alike, the source gives them in different places.

Assays:
[1] = Bioavailability enhancement of a drug/nutraceutical/herbal product given with bioenhancer (BE) to fasted rats; plasma drug level by HPLC, 0-24 hrs; conditions: for % Enhancement in bioavailability, Piperine + BE from Zingiber officinale: drug + piperine 8 mg/kg + BE from Zingiber officinale
[2] = rat, in vivo

| SMILES | % Enhancement in bioavailability, Piperine + BE from Zingiber officinale [1] | % Enhancement in bioavailability, Piperine + BE from Zingiber officinale [2] | also measured |
| --- | --- | --- | --- |
| O=c1[nH]cc(F)c(=O)[nH]1 [5-Fluorouracil] | 93% | – | – |
| Nc1nc2c(ncn2COCCO)c(=O)[nH]1 [Acyclovir] | – | 85% | – |
| Cc1nnc2n1-c1ccc(Cl)cc1C(c1ccccc1)=NC2 [Aiprazolam, Alprazolam] | 70% | – | – |
| NCC[C@H](O)C(=O)N[C@@H]1C[C@H](N)[C@@H](O[C@H]2O[C@H](CN)[C@@H](O)[C@H](O)[C@H]2O)[C@H](O)[C@H]1O[C@H]1O[C@H](CO)[C@@H](O)[C@H](N)[C@H]1O [Amikacin] | – | Nil | – |
| CCOC(=O)C1=C(COCCN)NC(C)=C(C(=O)OC)C1c1ccccc1Cl (centres unmarked) [Amlodipine] | – | 95% | – |
| CC1(C)S[C@@H]2[C@H](NC(=O)[C@H](N)c3ccc(O)cc3)C(=O)N2[C@H]1C(=O)O [Amoxycillin] | 90% | – | – |
| CC[C@H]1OC(=O)[C@H](C)[C@@H](O[C@H]2C[C@@](C)(OC)[C@@H](O)[C@H](C)O2)[C@H](C)[C@@H](O[C@@H]2O[C@H](C)C[C@H](N(C)C)[C@H]2O)[C@](C)(O)C[C@@H](C)CN(C)[C@H](C)[C@@H](O)[C@]1(C)O [Azithromycin] | – | 85% | – |
| CN(Cc1cc(Br)cc(Br)c1N)C1CCCCC1 [Bromhexine] | 75% | – | % Enhancement in bioavailability, BE from Zingiber officinale ([1]; drug + BE from Zingiber officinale (extract 30 mg/kg or fraction No 1 15 mg/kg)): 46% |
| CC1=C(C(=O)O)N2C(=O)[C@@H](NC(=O)[C@H](N)c3ccc(O)cc3)[C@H]2SC1 [Cefadroxil] | – | 65% | – |
| C=CC1=C(C(=O)O)N2C(=O)[C@@H](NC(=O)/C(=N\OCC(=O)O)c3csc(N)n3)[C@H]2SC1 [Cefixime] | – | Nil | – |
| CN/C(=N/CCSCc1nc[nH]c1C)NC#N [Cimetidine] | 76% | – | – |
| Cc1onc(-c2ccccc2Cl)c1C(=O)N[C@@H]1C(=O)N2[C@@H]1SC(C)(C)[C@@H]2C(=O)O [Cloxacillin] | – | 90% | – |
| N[C@@H]1CON=C1O [Cycloserine] | – | 70% | – |
| Nc1ccc(S(=O)(=O)c2ccc(N)cc2)cc1 [Dapsone] | 55% | – | – |
| O=C(O)Cc1ccccc1Nc1c(Cl)cccc1Cl [Diclofenac] | – | 140% | – |
| COc1cccc2c1C(=O)c1c(O)c3c(c(O)c1C2=O)C[C@@](O)(C(=O)CO)C[C@@H]3O[C@H]1C[C@H](N)[C@H](O)[C@H](C)O1 [Doxorubicin] | 75% | – | – |
| CC[C@H]1OC(=O)[C@H](C)[C@@H](O[C@H]2C[C@@](C)(OC)[C@@H](O)[C@H](C)O2)[C@H](C)[C@@H](O[C@@H]2O[C@H](C)C[C@H](N(C)C)[C@H]2O)[C@](C)(O)C[C@@H](C)C(=O)[C@H](C)[C@@H](O)[C@]1(C)O [Erythromycin] | – | 105% | – |
| CC[C@@H](CO)NCCN[C@@H](CC)CO [Ethambutol] | – | Nil | – |
| CCc1cc(C(N)=S)ccn1 [Ethionamide] | 48% | – | – |

| SMILES | % Enhancement in bioavailability, Piperine + BE from Zingiber officinale [1] | % Enhancement in bioavailability, Piperine + BE from Zingiber officinale [2] | also measured |
| --- | --- | --- | --- |
| NNC(=O)c1ccncc1 [Isoniazid] | – | Negligible | – |
| CC(=O)N1CCN(c2ccc(OCC3COC(Cn4ccnc4)(c4ccc(Cl)cc4Cl)O3)cc2)CC1 (centres unmarked) [Ketoconazole] | 100% | – | – |
| NCCCC[C@H](N[C@@H](CCc1ccccc1)C(=O)O)C(=O)N1CCC[C@H]1C(=O)O [Lisinopril] | 100% | – | – |
| CN(Cc1cnc2nc(N)nc(N)c2n1)c1ccc(C(=O)N[C@@H](CCC(=O)O)C(=O)O)cc1 [Methotrexate] | 49% | – | – |
| CS(=O)(=O)Nc1ccc([N+](=O)[O-])cc1Oc1ccccc1 [Nimesulide] | 165% | – | – |
| CCn1cc(C(=O)O)c(=O)c2cc(F)c(N3CCNCC3)cc21 [Norfloxacin] | – | Negligible | – |
| CC1COc2c(N3CCN(C)CC3)c(F)cc3c(=O)c(C(=O)O)cn1c23 (centres unmarked) [O-floxacin, Ofloxacin] | – | 67% | – |
| COc1ccc2[nH]c([S+]([O-])Cc3ncc(C)c(OC)c3C)nc2c1 (centres unmarked) [Omeprazole] | – | Nil | – |
| CN1C(C(=O)Nc2ccccn2)=C(O)c2ccccc2S1(=O)=O [Piroxicam] | – | 134% | – |
| CC(C)NCC(O)COc1cccc2ccccc12 (centres unmarked) [Propranolol] | 104% | – | – |
| NC(=O)c1cnccn1 [Pyrazinamide] | – | Nil | – |
| CNC(=C[N+](=O)[O-])NCCSCc1ccc(CN(C)C)o1 [Ranitidine] | – | 165% | – |
| CO[C@H]1/C=C/O[C@@]2(C)Oc3c(C)c(O)c4c(O)c(c(/C=N/N5CCN(C)CC5)c(O)c4c3C2=O)NC(=O)/C(C)=C\C=C\[C@H](C)[C@H](O)[C@@H](C)[C@@H](O)[C@@H](C)[C@H](OC(C)=O)[C@@H]1C [Rifampicin] | 98% | – | – |
| CC[C@H]1OC(=O)[C@H](C)[C@@H](O[C@H]2C[C@@](C)(OC)[C@@H](O)[C@H](C)O2)[C@H](C)[C@@H](O[C@@H]2O[C@H](C)C[C@H](N(C)C)[C@H]2O)[C@](C)(O)C[C@@H](C)/C(=N\OCOCCOC)[C@H](C)[C@@H](O)[C@]1(C)O [Roxythromycin] | – | 93% | – |
| CC(C)(C)NCC(O)c1ccc(O)c(CO)c1 (centres unmarked) [Salbutamol] | 92% | – | – |
| C=CC[C@@H]1/C=C(\C)C[C@H](C)C[C@H](OC)[C@H]2O[C@@](O)(C(=O)C(=O)N3CCCC[C@H]3C(=O)O[C@H](/C(C)=C/[C@@H]3CC[C@@H](O)[C@H](OC)C3)[C@H](C)[C@@H](O)CC1=O)[C@H](C)C[C@@H]2OC [Tacrolimus] | – | 117% | – |
| Cn1c(=O)c2[nH]cnc2n(C)c1=O [Theophylline] | 80% | – | – |
| Cc1cn([C@H]2C[C@H](N=[N+]=[N-])[C@@H](CO)O2)c(=O)[nH]c1=O [Zidovudine] | 126% | – | – |
